# Experimental data taken from patent US10239835B2, “N-alkylaryl-5-oxyaryl-octahydro-cyclopenta[c]pyrrole negative allosteric modulators of NR2B” (Luc Therapeutics, Inc., priority 2014, dated 2019).
# Legend:
# [1] = biological target: HEK293 cells expressing NR1/NR2B (Homo sapiens (Human), UniProt Q05586+Q13224); assay: NR2B NAM Assay (FDSS Ca2+ influx cell assay); assay type: cell-based; details: NR2B NAM assay, class of inhibitory concentration; read-out: Activity Category
# Description: (§1) Cell Culture and plating: HEK293 cells expressing NR1/NR2B (Chantest, Cleveland, Ohio) were grown to 70-80% confluency as an adherent monolayer in standard tissue culture flasks at 37° C., 5% CO2 per supplier's instructions. NR2B expression was induced by incubation with 0.3-0.4 μg/ml tetracycline in the presence of 4 mM ARL-15896 for 18-24 hours under the same growth conditions, then transferred to 30° C. for another 3-5 hours.
# (§2) After induction, cell culture medium was removed and cells were rinsed once with Ca^2+ and Mg^2+-free Dulbecco's phosphate buffered saline. Cells were then removed from the flask using TrypLE™ Express (Life Technologies) according to the manufacturer's instructions and collected to 50 ml centrifuge tubes. Following two washes in Ca^2+/Mg^2+-free HBSS with 20 mM HEPES (HHnoCa), cells were counted and viability assessed using trypan blue. To load cells with Ca^2+-sensitive dye, they were resuspended in fluo-8 plus Component B (AAT Bioquest Products) diluted in HHnoCa and incubated 15 minutes at 37° C., followed by 30 minutes at room temp (in dark). Cells were then washed and resuspended in HHnoCa to remove extracellular dye and plated in 384-well plates (Falcon, uncoated) at 20,000-30,000 cells/well in a final volume of 25 μl/well.
# (§3) FDSS Assay: To each well of the plate, 10 μL test compound, control (MK801) or HHnoCa buffer was added at different concentrations to yield final concentrations of 0.001, 0.003, 0.010, 0.030, 0.100, 0.300, 1.000, 3.000, 10.000, or 30.000 uM final concentration of DMSO of 0.1%. Following 10 minutes pre-incubation in the dark, plates are loaded onto the Hamamatsu FDSS 6000. After collecting baseline fluorescence images, 3 μM glutamate, 3 μM glycine, and 1 mM Ca^2+ in HHnoCa buffer is added to each well, and Ca^2+ is recorded for 3 minutes. Data were processed by computing ratio of fluorescence at the end of data collection to baseline fluorescence to assess degree of Ca^2+ influx inhibition relative to that observed in MK801.
# (§4) Table 8 below provides activity of each compound according to the legend that “++++” indicates inhibition at a concentration<100 nM; “+++” indicates inhibition at a concentration between 100 nM and 1 μM of the disclosed compound; “++” indicates inhibition at a concentration of from 1 μM to 10 μM; and “+” indicates inhibition at a concentration>10 μM.
# [2] = biological target: HEK293 cells expressing NR1/NR2B (Homo sapiens (Human), UniProt Q13224); assay: NR2B NAM Assay (FDSS Ca2+ influx cell assay); assay type: cell-based; details: Ca2+ influx inhibition relative to MK801; 3 μM glutamate, 3 μM glycine, 1 mM Ca2+; read-out: NR2B NAM IC50
# HEK293 cells expressing NR1/NR2B (Homo sapiens (Human), UniProt Q13224), sequence (Q13224 27-1484, other chains not shown): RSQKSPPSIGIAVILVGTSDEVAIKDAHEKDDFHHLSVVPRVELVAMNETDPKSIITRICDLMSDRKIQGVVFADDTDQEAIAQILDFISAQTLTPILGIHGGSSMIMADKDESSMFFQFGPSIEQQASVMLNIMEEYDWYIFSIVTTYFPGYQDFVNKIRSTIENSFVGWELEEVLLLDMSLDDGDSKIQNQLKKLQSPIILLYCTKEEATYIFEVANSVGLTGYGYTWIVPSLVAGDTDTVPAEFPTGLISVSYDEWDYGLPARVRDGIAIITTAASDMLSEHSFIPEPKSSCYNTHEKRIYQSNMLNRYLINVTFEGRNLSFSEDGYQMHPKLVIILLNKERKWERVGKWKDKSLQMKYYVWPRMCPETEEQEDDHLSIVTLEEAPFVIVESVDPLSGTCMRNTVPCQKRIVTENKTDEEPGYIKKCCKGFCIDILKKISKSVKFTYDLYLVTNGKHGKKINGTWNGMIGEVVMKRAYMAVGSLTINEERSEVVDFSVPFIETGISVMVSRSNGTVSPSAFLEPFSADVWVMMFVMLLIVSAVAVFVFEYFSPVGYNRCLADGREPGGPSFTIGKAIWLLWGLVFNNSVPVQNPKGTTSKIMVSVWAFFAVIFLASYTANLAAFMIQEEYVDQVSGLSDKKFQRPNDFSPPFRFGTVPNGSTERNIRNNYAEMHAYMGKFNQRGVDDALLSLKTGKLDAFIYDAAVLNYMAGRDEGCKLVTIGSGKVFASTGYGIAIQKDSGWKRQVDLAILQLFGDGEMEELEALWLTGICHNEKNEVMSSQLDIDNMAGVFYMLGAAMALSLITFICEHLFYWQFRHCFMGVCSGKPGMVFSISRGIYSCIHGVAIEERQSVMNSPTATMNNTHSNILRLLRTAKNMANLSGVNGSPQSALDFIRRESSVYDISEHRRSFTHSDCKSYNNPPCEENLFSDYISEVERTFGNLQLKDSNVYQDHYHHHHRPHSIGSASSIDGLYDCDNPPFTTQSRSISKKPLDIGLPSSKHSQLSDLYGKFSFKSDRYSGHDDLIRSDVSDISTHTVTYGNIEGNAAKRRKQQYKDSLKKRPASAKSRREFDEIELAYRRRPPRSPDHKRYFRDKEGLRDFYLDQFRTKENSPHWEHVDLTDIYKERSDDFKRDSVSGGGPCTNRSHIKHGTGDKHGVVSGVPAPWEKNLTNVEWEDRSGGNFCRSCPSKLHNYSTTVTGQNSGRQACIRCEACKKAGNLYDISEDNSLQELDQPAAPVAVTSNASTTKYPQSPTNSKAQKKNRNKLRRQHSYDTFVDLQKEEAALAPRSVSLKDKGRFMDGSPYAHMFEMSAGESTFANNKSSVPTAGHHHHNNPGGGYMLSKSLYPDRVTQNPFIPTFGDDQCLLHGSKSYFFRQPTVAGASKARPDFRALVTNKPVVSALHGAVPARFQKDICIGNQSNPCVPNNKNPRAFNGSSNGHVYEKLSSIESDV
# Description: as §1, §2, §3, §4
# HEK293 cells expressing NR1/NR2B (Homo sapiens (Human), UniProt Q05586+Q13224), sequence (Q13224 27-1484, other chains not shown): as above
Structure (SMILES),IC50 [1] [µM],IC50 [2] [µM]
O=C(CN1C[C@H]2C[C@H](Oc3c(F)cccc3F)C[C@H]2C1)c1ccc(O)cn1,1 to 10,1.08
N#Cc1cccc(O[C@H]2C[C@@H]3CN(CC(=O)c4ccc(O)cn4)C[C@@H]3C2)c1,> 10,10
OC(CN1C[C@H]2C[C@H](Oc3ccc(F)cc3)C[C@H]2C1)c1cn[nH]c1 (stereo partly drawn) [drawing 256],1 to 10,4.89
COc1ccc(F)c(O[C@H]2C[C@@H]3CN(CC(O)c4ccc(O)cn4)C[C@@H]3C2)c1 (stereo partly drawn),0.1 to 1,0.547
O=S(=O)(c1ccccc1)[C@H]1C[C@@H]2CN(CC(O)c3ccc(O)cc3)C[C@@H]2C1 (stereo partly drawn),1 to 10,4.37
O=C(CN1C[C@H]2C[C@H](Oc3ccccc3)C[C@H]2C1)c1ccc(O)cn1,1 to 10,6.24
Oc1ccc(C(O)CN2C[C@H]3C[C@H](Oc4cncc(F)c4)C[C@H]3C2)cc1 (stereo partly drawn),0.1 to 1,0.267
O=C(CN1C[C@H]2C[C@H](Oc3ccc(F)cc3)C[C@H]2C1)c1cnn(Cc2ccccc2)c1,> 10,10
COc1ccc(O[C@H]2C[C@@H]3CN(CC(=O)c4ccc(O)c(OC)n4)C[C@@H]3C2)cc1,> 10,10
COc1cccc(O[C@H]2C[C@@H]3CN(CC(=O)c4ccc(O)cn4)C[C@@H]3C2)c1F,1 to 10,3.78
Oc1ccc(C(O)CN2C[C@H]3C[C@H](Oc4cccnc4)C[C@H]3C2)cc1 (stereo partly drawn),< 0.1,0.0946
COc1ccc(O[C@H]2C[C@@H]3CN(CC(=O)c4ccc(O)c(F)n4)C[C@@H]3C2)cc1,> 10,10
Oc1ccc(C(O)CN2C[C@H]3C[C@H](Oc4ccc(F)c(F)c4)C[C@H]3C2)cc1 (stereo partly drawn),< 0.1,0.014
COc1cccc(F)c1O[C@H]1C[C@@H]2CN(CC(=O)c3ccc(O)cn3)C[C@@H]2C1,> 10,10

# Now from value to compound:
IC50 [1] [µM],IC50 [2] [µM],Structure (SMILES)
< 0.1,0.013,Oc1ccc(C(O)CN2C[C@H]3C[C@H](Oc4ccc(F)cc4)C[C@H]3C2)cc1 (stereo partly drawn)
< 0.1,0.0686,O=C(CN1C[C@H]2C[C@@H](Oc3ccc(F)c(F)c3)C[C@H]2C1)c1ccc(O)cc1
< 0.1,0.0807,Oc1ccc(C(O)CN2C[C@H]3C[C@@H](Oc4ccc(F)c(F)c4)C[C@H]3C2)cc1 (stereo partly drawn)
< 0.1,0.00681,Oc1ccc(C(O)CN2C[C@H]3C[C@H](Oc4ccc(F)cc4F)C[C@H]3C2)nc1 (stereo partly drawn)
< 0.1,0.00878,Oc1ccc(C(O)CN2C[C@H]3C[C@H](Oc4cccc(F)c4F)C[C@H]3C2)nc1 (stereo partly drawn)
< 0.1,0.0521,Oc1ccc(C(O)CN2C[C@H]3C[C@H](Oc4cccnc4)C[C@H]3C2)cc1F (stereo partly drawn)
< 0.1,0.074,O=C(CN1C[C@H]2C[C@H](Sc3ccc(F)cc3)C[C@H]2C1)c1ccc(O)cc1
< 0.1,0.0741,Oc1ccc(C(O)CN2C[C@H]3C[C@H](Oc4ccc(F)nc4)C[C@H]3C2)cc1 (stereo partly drawn)
< 0.1,0.00862,Oc1ccc(C(O)CN2C[C@H]3C[C@H](Oc4ccc(F)cc4F)C[C@H]3C2)cc1 (stereo partly drawn)
< 0.1,0.0707,COc1cccc(O[C@H]2C[C@@H]3CN(CC(O)c4ccc(O)cn4)C[C@@H]3C2)c1 (stereo partly drawn)
< 0.1,0.0209,Oc1ccc(C(O)CN2C[C@H]3C[C@H](Oc4cccnc4F)C[C@H]3C2)nc1 (stereo partly drawn)
< 0.1,0.0178,Oc1ccc(C(O)CN2C[C@H]3C[C@@H](Oc4ccc(F)cc4)C[C@H]3C2)cc1 (stereo partly drawn)
< 0.1,0.0302,Oc1ccc(C(O)CN2C[C@H]3C[C@H](Oc4ccc(F)cc4)C[C@H]3C2)nc1F (stereo partly drawn)
